This note sets out measurements from patent US20250339426A1, “GCN2 MODULATOR FOR TREATING CANCER” (HIBERCELL, INC., priority 2022, published 2025).

The subject of assay [1] is NCI-H1975 (human non-small cell lung cancer cells). Kind of assay: In vivo tumor growth inhibition, NCI-H1975 xenograft. The arrangement: species or system Athymic Nude-Foxn1nu mice. How it is done: NCI-H1975 (human non-small cell lung cancer cells): Female 7-8 weeks old Athymic Nude-Foxn1nu mice were inoculated subcutaneously on the right flank with NCI-H1975 tumor cells (2.5×10^6) in 0.1 ml of RPMI1640 medium without serum for tumor development. Single agent HC-7366 was dosed at 3 mg/kg, osimertinib at 2.5 mg/kg and dacomitinib at 15 mg/kg. HC-7366 was combined with either osimertinib or dacomitinib. The vehicle for the groups was 0.5% methyl cellulose. The treatments were started when the mean tumor size reached approximately 205 mm^3 at Day 22 post inoculation and continued until end of study. HC-7366 was given twice daily by oral gavage whereas osimertinib or dacomitinib were administered once a day by oral gavage (FIGS. 131 and 133).
(§1) [formula] • 2.2.2 Tumor Measurements: The measurement of tumor size was conducted three times weekly with a caliper and recorded. The tumor volume (mm^3) was estimated using the formula: TV=a×b^2/2, where “a” and “b” is long and short diameters of a tumor, respectively. Tumor volume was calculated using the formula [tumor volume (mm^3)=π/6×length×width^2).
(§2) Regression was calculated using the formula=100×ΔT/T initial, if ΔT<0. Animals with 0 mm^3 tumor volume (no measurable tumor) for three consecutive measurements were considered as complete responders and animals with 50% tumor regressions were partial responders.

Assay [2] deals with GCN2 pathway (p-GCN2, ATF4) in HT1080 cells. Kind of assay: Western blot analysis of HT1080 cell lysates. Format: cell-based, human. To be noted: 100 nM Halofuginone. The method, then: The HT1080 cells were harvested and counted and diluted to the desired density. 2 mL of cell suspension was added into each well of 6-well cell culture plate. The plates were transferred into 37° C., 5% CO2 incubator overnight. The cells were treated as described above. The media was aspirated, and cells were washed with ice cold phosphate buffered saline (PBS). Ice cold 1× radioimmunoprecipitation assay (RIPA) lysis buffer supplemented with protease and phosphatase inhibitors was added to the cell pellets, on ice. After 30 min on ice the cell lysates were centrifuged at 4° C., 12,000 rpm for 15 minutes and the supernatant collected. Protein concentration was determined using BCA kit. The cell lysates were mixed with 5× sodium dodecyl sulfate (SDS) loading buffer and denatured at 95° C. for 5 minutes. […] After the electrophoresis was completed, the separated protein was transferred to a nitrocellulose membrane using transblot system for 90 min, 300 mA, then the membrane was blocked with (tris-buffered saline) TBS buffer (5% bovine serum albumin (BSA)) for 1 hr at room temperature. The membrane was exposed to the primary antibodies overnight in cold room in TBS buffer (1% BSA). The membrane was then washed with TBS-Tween for 3×10 min at R/T, incubated with secondary antibodies in TBS buffer (1% BSA) for 1 hr at RT. The membrane was washed with TBS-Tween for 3×10 min at R/T and the imaging was acquired with Li—COR imaging system.

For assay [3], the system named is 786-O (human renal cell carcinoma cancer cells). Nature of the assay: In vivo tumor growth inhibition, 786-O xenograft. The following applies: PT-2977 single agent, 0.1 mg/kg twice a day oral. Also on record: species or system BALB/c nude mice. The method, then: 786-O (human renal cell carcinoma cancer cells): Female 6-8 weeks old BALB/c nude mice were inoculated subcutaneously on the right flank with 786-O tumor cells (5×10^6) in 0.1 ml of RPMI1640 medium without serum for tumor development. […] For the DC101 combination study, DC101 (murine monoclonal anti-VEGFR2 antibody) was dosed at 15 mg/kg twice a week by intraperitoneal injection.
as §1, §2
Female 6-8 weeks old BALB/c nude mice were inoculated subcutaneously on the right flank with 786-O tumor cells (5×10^6) in 0.1 ml of RPMI1640 medium without serum for tumor development (see Example 6). […]

Assay [4] has as its system MFE280 (human endometrial cancer cells). Nature of the assay: In vivo tumor growth inhibition, MFE280 xenograft. The arrangement: species or system Athymic Nude-Foxn1nu mice. The following applies: PT2977 1 mg/kg twice daily oral.
Assay [5] relates to MV4-11 (human AML cancer cells). Kind of assay: In vivo tumor growth inhibition, MV4-11 xenograft. Also on record: species or system BALB/c nude mice. The following applies: venetoclax monotherapy, 50 mg/kg once daily. The method, then: MV4-11 (human AML cancer cells): Female 6-8 weeks old BALB/c nude mice were inoculated subcutaneously on the right flank with MV4-11 tumor cells (1×10^7) in RPMI 1640 without serum for tumor development. The treatments were started when the mean tumor size reached approximately 150 mm^3 at Day 13 after cell inoculation and continued until end of study by twice daily oral gavage dosing of HC-7366 at listed doses (vehicle, 0.3 mg/kg HC-7366, 1 mg/kg HC-7366, 3 mg/kg HC-7366, 10 mg/kg HC-7366, or 30 mg/kg HC-7366, FIG. 20). For venetoclax combination study, venetoclax was dissolved in 0.5% carboxymethylcellulose (CMC) and co-administered at 50 mg/kg dose once daily (see Example 8).
as §1, §2
MV4-11 tumors were collected at the end of the venetoclax combination study described in Example 6. Tumor growth curves are provided of MV4-11 tumors treated with single agent HC-7366 and venetoclax or combination (FIG. 43).

Assay [6] relates to DLD-1 (human colorectal cancer cells). Nature of the assay: In vivo tumor growth inhibition, DLD-1 xenograft. Also on record: species or system BALB/c nude mice. The following applies: 5-fluorouracil 75 mg/kg once a week intravenous. The method, then: DLD-1 (human colorectal cancer cells): Female 6-8 weeks old BALB/c nude mice were inoculated subcutaneously on the right flank with DLD-1 tumor cells (5×10^6) in 0.1 ml of RPMI1640 medium without serum for tumor development. The treatments were started when the mean tumor size reached approximately 195 mm^3 at Day 7 post inoculation and continued until end of study by twice daily oral gavage dosing of HC-7366 at listed doses (vehicle, 0.3 mg/kg HC-7366, 1 mg/kg HC-7366, 3 mg/kg HC-7366, 10 mg/kg HC-7366, or 30 mg/kg HC-7366, FIG. 10). For the time course study, tumors were harvested at Days 4, 7 and 14. Tumors were then used for IHC and RNAseq experiments (see Example 21).
as §1, §2
The effect of DC101 in combination with HC-7366 in DLD-1 tumor-bearing mice was evaluated using protocols analogous to those described in Example 6. Mice were treated with 3 or 30 mg/kg HC-7366, twice daily by oral gavage. DC101 was administered at 20 mg/kg twice weekly and with twice daily dosing via intraperitoneal injection.
The effect of 5-fluorouracil in combination with HC-7366 in DLD-1 tumor-bearing mice was evaluated using protocols analogous to those described in Example 6. Mice were treated with 3 or 30 mg/kg HC-7366, twice daily by oral gavage. 5-fluorouracil was administered at 75 mg/kg once a week, twice daily via intravenous injection.

`COc1cc2ncnc(Nc3ccc(F)c(Cl)c3)c2cc1NC(=O)/C=C/CN1CCCCC1` [dacomitinib] showed a TGI % in assay [1] (dacomitinib alone 15 mg/kg once a day, end of the study, without statistical significance) of 36%.
Usually TGI stands for how far tumour growth fell short of that in controls. Take `C=CC(=O)Nc1cc(Nc2nccc(-c3cn(C)c4ccccc34)n2)c(OC)cc1N(C)CCN(C)C` [osimertinib]: the “partial response (animals/group)” value in assay [1] (50% tumor regressions, doses as in study) is reported as 1/10. This molecule registered a TGI in assay [1] (osimertinib 2.5 mg/kg once a day oral) of 95%.
Take `O=C(CC1NCCCC1O)Cn1cnc2cc(Br)c(Cl)cc2c1=O` (centres unmarked) [halofuginone, reference compound]: the “GCN2 and ATF4 in cells treated with halofuginone” value in assay [2] is “activation of GCN2 and ATF4”.
With `CS(=O)(=O)c1ccc(Oc2cc(F)cc(C#N)c2)c2c1[C@H](O)[C@H](F)[C@@H]2F` [PT-2977, belzutifan, reference compound], the TGI % in assay [3] was approximately 70%. Besides, the tumor growth inhibition in assay [4] amounted to 53%.
For the molecule `CC1(C)CCC(CN2CCN(c3ccc(C(=O)NS(=O)(=O)c4ccc(NCC5CCOCC5)c([N+](=O)[O-])c4)c(Oc4cnc5[nH]ccc5c4)c3)CC2)=C(c2ccc(Cl)cc2)C1` [venetoclax, reference compound], in assay [5], the TGI is 62%.
As for `O=c1[nH]cc(F)c(=O)[nH]1` [5-fluorouracil, reference compound], in assay [6], the TGI % is approximately 68%.
